Assay results from patent publication US10376520B2, “Methods for the treatment of cardiovascular disorders” (Galapagos NV, priority 2015, dated 2019).

System: Subjects With Active Crohn's Disease
Assay: Total cholesterol determination, Study 5 (Crohn's disease, monotherapy of Compound 1)
Type: in vivo, human
Conditions: for [Total cholesterol] Mean CFB - 10 weeks results / [Total cholesterol] Median CFB - 10 weeks results / [Total cholesterol] Median CFB / [total cholesterol] Mean CFB: 200 mg q.d.; for [Total cholesterol] Median CFB / [total cholesterol] Mean CFB: Study 5 10 weeks results
Source text: Double-Blind, Randomized, Placebo-Controlled, Multi-Centre Study to Investigate the Efficacy and Safety of Compound 1 in Subjects With Active Crohn's Disease With Evidence of Mucosal Ulceration.
This is a double-blind, randomized, placebo-controlled, multi-centre Phase 2 study to investigate the efficacy and safety of Compound 1 administered once daily for the treatment of active CD with evidence of mucosal ulceration. The pharmacokinetics (including a PK substudy) and pharmacodynamics of Compound 1 and metabolite in CD will also be characterised.
A total of 180 eligible subjects will be randomized to receive Compound 1 or placebo in addition to their stable background treatment (eg, corticosteroids, aminosalicylates, or CD-related antibiotics). The study will consist of 2 parts, with total treatment duration of 20 weeks. Randomization in Part 1 will be stratified according the subject's previous anti-TNF exposure/response, CRP level at Screening, and oral corticosteroid use at visit Day −1.
After the first 10 weeks of treatment in Part 1, patients will be re-randomized for Part 2 as shown in the diagram below and will be stratified according to the subject's clinical response, previous anti-TNF exposure/response, and oral corticosteroid use at visit Day −1.
The following assays were conducted at Eurofins Global Central Laboratory, Bergschot 71, 4817 PA Breda, The Netherlands, and at Quest Diagnostics, Clinical Trials, Quest House, 125-135 Staines Road, Hounslow, Middlesex, TW3 3JB, United Kingdom. The assays for Study 5 were performed at BARC Europe, 3B, Industrie Park, Zwijnaarde, B-9052 Ghent, Belgium.
This method is based on the determination of Δ^4 cholestenone after enzymatic cleavage of the cholesterol ester by cholesterol esterase, conversion of cholesterol by cholesterol oxidase, and subsequent measurement by the Trinder reaction of the hydrogen peroxide formed (Allain et al., 1974).
Cholesterol esters are cleaved by the action of cholesterol esterase to yield free cholesterol and fatty acids. Cholesterol oxidase then catalyzes the oxidation of cholesterol to cholest-4-en-3-one and hydrogen peroxide. In the presence of peroxidase, the hydrogen peroxide formed effects the oxidative coupling of phenol and 4-aminophenazone to form a red quinone-imine dye. The color intensity of the dye formed is directly proportional to the cholesterol concentration. It is determined by measuring the increase in absorbance.
Human serum and plasma samples cholesterol determination was done on a Roche/Hitachi Cobas c 701/702 system which automatically calculate the analyte concentration of each sample.

[1] = 200 mg q.d. continued to week 20, week 2
[2] = 200 mg q.d. continued to week 20, week 4
[3] = 200 mg q.d. continued to week 20, week 6
[4] = 200 mg q.d. continued to week 20, week 10
[5] = 200 mg q.d. continued to week 20, week 12
[6] = 200 mg q.d. continued to week 20, week 16
[7] = 200 mg q.d. continued to week 20, week 20
[8] = 200 mg q.d. week 0 to 10, to 100 mg q.d. week 10 to 20, week 2
[9] = 200 mg q.d. week 0 to 10, to 100 mg q.d. week 10 to 20, week 4
[10] = 200 mg q.d. week 0 to 10, to 100 mg q.d. week 10 to 20, week 6
[11] = 200 mg q.d. week 0 to 10, to 100 mg q.d. week 10 to 20, week 10
[12] = 200 mg q.d. week 0 to 10, to 100 mg q.d. week 10 to 20, week 12
[13] = 200 mg q.d. week 0 to 10, to 100 mg q.d. week 10 to 20, week 16
[14] = 200 mg q.d. week 0 to 10, to 100 mg q.d. week 10 to 20, week 20
[15] = 200 mg q.d. week 0 to 10, to placebo week 10 to 20, week 2
[16] = 200 mg q.d. week 0 to 10, to placebo week 10 to 20, week 4
[17] = 200 mg q.d. week 0 to 10, to placebo week 10 to 20, week 6
[18] = 200 mg q.d. week 0 to 10, to placebo week 10 to 20, week 10
[19] = 200 mg q.d. week 0 to 10, to placebo week 10 to 20, week 12
[20] = 200 mg q.d. week 0 to 10, to placebo week 10 to 20, week 16
[21] = 200 mg q.d. week 0 to 10, to placebo week 10 to 20, week 20

O=C(Nc1nc2cccc(-c3ccc(CN4CCS(=O)(=O)CC4)cc3)n2n1)C1CC1 [Compound 1, cyclopropanecarboxylic acid {5-[4-(1,1-dioxo-thiomorpholin-4-ylmethyl)-phenyl]-[1,2,4]triazolo[1,5-a]pyridin-2yl}-amide]
[Total cholesterol] Mean CFB - 20 weeks results [1]: 7.30%
[Total cholesterol] Median CFB - 20 weeks results [1]: 5.15%
[Total cholesterol] Mean CFB - 20 weeks results [2]: 5.06%
[Total cholesterol] Median CFB - 20 weeks results [2]: 2.70%
[Total cholesterol] Mean CFB - 20 weeks results [3]: 6.70%
[Total cholesterol] Median CFB - 20 weeks results [3]: 7.88%
[Total cholesterol] Mean CFB - 20 weeks results [4]: 11.58%
[Total cholesterol] Median CFB - 20 weeks results [4]: 9.98%
[Total cholesterol] Mean CFB - 20 weeks results [5]: 11.06%
[Total cholesterol] Median CFB - 20 weeks results [5]: 6.99%
[Total cholesterol] Mean CFB - 20 weeks results [6]: 11.13%
[Total cholesterol] Median CFB - 20 weeks results [6]: 6.91%
[Total cholesterol] Mean CFB - 20 weeks results [7]: 11.03%
[Total cholesterol] Median CFB - 20 weeks results [7]: 5.31%
[Total cholesterol] Mean CFB - 20 weeks results [8]: 4.54%
[Total cholesterol] Median CFB - 20 weeks results [8]: 4.08%
[Total cholesterol] Mean CFB - 20 weeks results [9]: 6.72%
[Total cholesterol] Median CFB - 20 weeks results [9]: 1.92%
[Total cholesterol] Mean CFB - 20 weeks results [10]: 6.47%
[Total cholesterol] Median CFB - 20 weeks results [10]: 5.89%
[Total cholesterol] Mean CFB - 20 weeks results [11]: 9.72%
[Total cholesterol] Median CFB - 20 weeks results [11]: 7.10%
[Total cholesterol] Mean CFB - 20 weeks results [12]: 5.38%
[Total cholesterol] Median CFB - 20 weeks results [12]: 7.04%
[Total cholesterol] Mean CFB - 20 weeks results [13]: 2.89%
[Total cholesterol] Median CFB - 20 weeks results [13]: 2.83%
[Total cholesterol] Mean CFB - 20 weeks results [14]: 3.80%
[Total cholesterol] Median CFB - 20 weeks results [14]: 2.28%
[Total cholesterol] Mean CFB - 20 weeks results [15]: 3.98%
[Total cholesterol] Median CFB - 20 weeks results [15]: 3.93%
[Total cholesterol] Mean CFB - 20 weeks results [16]: 6.98%
[Total cholesterol] Median CFB - 20 weeks results [16]: 6.38%
[Total cholesterol] Mean CFB - 20 weeks results [17]: 5.72%
[Total cholesterol] Median CFB - 20 weeks results [17]: 7.32%
[Total cholesterol] Mean CFB - 20 weeks results [18]: 5.28%
[Total cholesterol] Median CFB - 20 weeks results [18]: 3.89%
[Total cholesterol] Mean CFB - 20 weeks results [19]: 1.82%
[Total cholesterol] Median CFB - 20 weeks results [19]: 3.93%
[Total cholesterol] Mean CFB - 20 weeks results [20]: 5.24%
[Total cholesterol] Median CFB - 20 weeks results [20]: 1.36%
[Total cholesterol] Mean CFB - 20 weeks results [21]: 3.92%
[Total cholesterol] Median CFB - 20 weeks results [21]: 2.50%
[Total cholesterol] Mean CFB - 10 weeks results (week 2): 6.066%
[Total cholesterol] Median CFB - 10 weeks results (week 2): 4.148%
[Total cholesterol] Mean CFB - 10 weeks results (week 4): 5.803%
[Total cholesterol] Median CFB - 10 weeks results (week 4): 3.803%
[Total cholesterol] Mean CFB - 10 weeks results (week 6): 6.458%
[Total cholesterol] Median CFB - 10 weeks results (week 6): 7.187%
[Total cholesterol] Mean CFB - 10 weeks results (week 10): 9.976%
[Total cholesterol] Median CFB - 10 weeks results (week 10): 7.456%
[Total cholesterol] Median CFB (week 2): 0.200 mmol/L
[total cholesterol] Mean CFB (week 2): 0.231 mmol/L
[Total cholesterol] Median CFB (week 4): 0.180 mmol/L
[total cholesterol] Mean CFB (week 4): 0.194 mmol/L
[Total cholesterol] Median CFB (week 6): 0.300 mmol/L
[total cholesterol] Mean CFB (week 6): 0.215 mmol/L
